Test results published in the NIST ThermoML archive (doi:10.1021/je034225b).

What was measured:
[1] = xn = mol fraction of the nth substance listed; settings: for surface tension liquid-gas: 297 K; for mass density: 100 kPa, Liquid, Pycnometric method
[2] = 297 K

CNC [dimethylamine] + O
[1]
Settings | surface tension liquid-gas [mN/m]
x1 = 0.002 | 68.4
x1 = 0.003 | 65.7
x1 = 0.004 | 65.8
x1 = 0.006 | 64.7
x1 = 0.008 | 62.8
x1 = 0.01 | 61.8
x1 = 0.013 | 60.4
x1 = 0.016 | 58.4
x1 = 0.025 | 56.1
x1 = 0.034 | 53.2
x1 = 0.043 | 51
x1 = 0.052 | 49.1
x1 = 0.061 | 48.1
x1 = 0.071 | 47.8
x1 = 0.091 | 42.4
x1 = 0.112 | 40.4
x1 = 0.135 | 38.9
x1 = 0.158 | 36.8
x1 = 0.184 | 35.3
x1 = 0.21 | 33.7

[1], 298.15 K
Settings | mass density [kg/m3]
x1 = 0.001 | 998
x1 = 0.002 | 994
x1 = 0.004 | 988
x1 = 0.008 | 987
x1 = 0.016 | 984
x1 = 0.025 | 974
x1 = 0.034 | 969
x1 = 0.043 | 967
x1 = 0.091 | 941
x1 = 0.146 | 918
x1 = 0.21 | 888

O=S(=O)(O)O [sulfuric acid] + O
[1]
Settings | surface tension liquid-gas [mN/m]
x1 = 0.001 | 71.6
x1 = 0.003 | 71.4
x1 = 0.006 | 71.2
x1 = 0.008 | 71.9
x1 = 0.026 | 72.4
x1 = 0.052 | 73.1
x1 = 0.09 | 74
x1 = 0.125 | 74.7
x1 = 0.18 | 75.2
x1 = 0.25 | 73.6
x1 = 0.35 | 72.3
x1 = 0.48 | 69.4

mass density [kg/m3], [1]
Settings | 298.15 K | 571.15 K
x1 = 0.001 | 998 | –
x1 = 0.003 | 1005 | 1005
x1 = 0.006 | 1017 | –
x1 = 0.008 | 1024 | –
x1 = 0.026 | 1085 | –
x1 = 0.052 | 1156 | –
x1 = 0.09 | 1253 | –
x1 = 0.125 | 1328 | –
x1 = 0.18 | 1422 | –
x1 = 0.25 | 1528 | –
x1 = 0.35 | 1622 | –
x1 = 0.48 | 1725 | –

O [water]
Settings | surface tension liquid-gas [mN/m]
[2] | 70.4
